# Marks after values point to notes of the source that are not given here.
# Assays:
# [1] = molecular target: T1, human GPR40 (Homo sapiens, UniProt O14842); test: Evaluation of human GPR40 agonist activity with increase in intracellular Ca2+ concentration as an index (FLIPR); format: cell-based; details: test compound 1 μM; CHO(dhfr−) cells stably expressing human GPR40; 100% = 10 μM compound of Example 153, 0% = DMSO
# T1 construct: expressed in transfected cells
# In short: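 CHO(dhfr−) cells stably expressing full-length human GPR40 were loaded with Ca2+ probe for 1 h at room temperature, then given test compound at 1 μM final. Fluorescence was followed on FLIPR, with activity scaled to a reference agonist at 10 μM (100%) and DMSO (0%).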
# [2] = tested on: N-STZ-1.5 rats; test: Oral glucose tolerance test using N-STZ-1.5 rats (glucose-lowering effects and insulinotropic action); format: in vivo, rat; details: 3 mg/kg body weight oral, 1 hr before glucose loading 1.5 g/kg, male N-STZ-1.5 rats, n=6; for blood glucose decrease rate (%): glucose AUC (0-60 min) vs control group; for insulin increase rate (fold): insulin AUC (0-60 min) test group/control group
# Description: The glucose-lowering effects and insulinotropic action of the compound of the present invention were evaluated by an oral glucose tolerance test using N-STZ-1.5 rats.
# Streptozotocin (120 mg/kg) was subcutaneously administered to 1 or 2 days-old male Wistar Kyoto rats to prepare type 2 diabetic model N-STZ-1.5 rats. The rats were allowed free access to standard laboratory chow diet (CE-2, CLEA Japan, Inc.).
# Male N-STZ-1.5 rats (25-week-old) were fasted for 15-17 hr, and the body weight was measured. Heparin (Ajinomoto Co., Inc.) as an anticoagulant and aprotinin (SIGMA) as a protease inhibitor were added, blood samples were collected from tail vein. The blood was centrifuged, the concentrations of glucose and triglyceride in plasma were measured, and the rats were divided into each group (n=6) based on these parameters. A 0.5% methylcellulose (control group) or a 0.5% methylcellulose suspension containing a test compound (3 mg/kg body weight) was orally administered to the rats at 5 ml/kg and, 1 hr after the administration, glucose solution (Otsuka Pharmaceutical Co., Ltd.) was orally administered at 1.5 g/7.5 ml/kg. Immediately before (0 min value) and 10, 30 and 60 min after the glucose loading, blood was drawn from the tail vein, centrifuged, and the concentrations of glucose and insulin in plasma were measured. The glucose and triglyceride concentrations were measured by automatic analysis apparatus 7180 (Hitachi, Ltd.), and the insulin concentration was measured by rat insulin radioimmunoassay kit (MIllipore). The area under glucose curve (AUC) and insulin AUC were calculated using the following formulas, and the blood glucose decrease rate (%) and insulin increase rate (fold) were calculated by the following formulas from the obtained AUCs. A statistical significant difference from the control group was analyzed by the Dunnett's test or Steel's test.
# Glucose AUC (0-60 Min): {(0 min glucose in plasma)+(10 min glucose in plasma)}×10/2+{(10 min glucose in plasma)+(30 min glucose in plasma)}×20/2+{(30 min glucose in plasma)+(60 min glucose in plasma)}×30/2 insulin AUC (0-60 Min): {(0 min insulin in plasma)+(10 min insulin in plasma)}×10/2+{(10 min insulin in plasma)+(30 min insulin in plasma)}×20/2+{(30 min insulin in plasma)+(60 min insulin in plasma)}×30/2 Blood Glucose Decrease Rate (%): [(test compound administration group glucose AUC/control group glucose AUC)−1]×100 insulin Increase Rate (Fold):
# test compound administration group insulin AUC/control group insulin AUC
# T1 sequence (O14842 whole entry): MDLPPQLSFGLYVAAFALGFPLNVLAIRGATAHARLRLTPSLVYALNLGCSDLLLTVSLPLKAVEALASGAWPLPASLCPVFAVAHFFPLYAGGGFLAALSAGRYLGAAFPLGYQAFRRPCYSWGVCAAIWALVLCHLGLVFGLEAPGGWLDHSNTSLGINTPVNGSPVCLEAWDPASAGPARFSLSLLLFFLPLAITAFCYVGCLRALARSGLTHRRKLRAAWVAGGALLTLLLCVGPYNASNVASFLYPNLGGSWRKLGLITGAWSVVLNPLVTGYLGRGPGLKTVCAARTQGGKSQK
activation at 1 µM [1] [%],Activity (human GPR40 agonist activity) [1] [%],Compound,blood glucose decrease rate (%) [2],insulin increase rate (fold) [2]
103,,"COc1ccc(C(=O)N(CC(C)(C)C)c2nc(C)cc(C)n2)c(N2CCC(COc3cc([C@@H](CC(=O)O)C4CC4)ccn3)CC2)c1 [Example 246, (3S)-3-cyclopropyl-3-(2-((1-(2-((2,2-dimethylpropyl)(4,6-dimethylpyrimidin-2-yl)carbamoyl)-5-methoxyphenyl)piperidin-4-yl)methoxy)pyridin-4-yl)propanoic acid]",42.7^$ %,2.1** fold
,,"COc1ccc(C(=O)N(CC(C)(C)F)c2cc(C)ccn2)c(N2CCC(COc3cc(C(CC(=O)O)C4CC4)ccn3)CC2)c1 (centres unmarked) [Example 185, 3-cyclopropyl-3-(2-((1-(2-((2-fluoro-2-methylpropyl)(4-methylpyridin-2-yl)carbamoyl)-5-methoxyphenyl)piperidin-4-yl)methoxy)pyridin-4-yl)propanoic acid]",30.8^$ %,1.6 fold
,102,"COc1ccc(C(=O)N(CC(C)(C)C)c2cccc(C)n2)c(N2CCC(COc3cc([C@@H](CC(=O)O)C4CC4)ccn3)CC2)c1 [Example 245, (3S)-3-cyclopropyl-3-(2-((1-(2-((2,2-dimethylpropyl)(6-methylpyridin-2-yl)carbamoyl)-5-methoxyphenyl)piperidin-4-yl)methoxy)pyridin-4-yl)propanoic acid]",44.5^$ %,2.1** fold
102,,"COc1ccc(C(=O)N(CC(C)(C)C)c2ccccn2)c(N2CCC(COc3cc([C@@H](CC(=O)O)C4CC4)ccn3)CC2)c1 [Example 247, (3S)-3-cyclopropyl-3-(2-((1-(2-((2,2-dimethylpropyl)(pyridin-2-yl)carbamoyl)-5-methoxyphenyl)piperidin-4-yl)methoxy)pyridin-4-yl)propanoic acid]",41.5^$ %,2.0** fold
81,,"COc1ccc(C(=O)N(CC2CCOCC2)c2ccccn2)c(N2CCC(COc3cc(C(CC(=O)O)C4CC4)ccn3)CC2)c1 (centres unmarked) [Example 196, 3-cyclopropyl-3-(2-((1-(5-methoxy-2-(pyridin-2-yl(tetrahydro-2H-pyran-4-ylmethyl)carbamoyl)phenyl)piperidin-4-yl)methoxy)pyridin-4-yl)propanoic acid]",,
103,,"COc1ccc(C(=O)N(Cc2ccccc2)c2ccccn2)c(N2CCC(COc3cc(C(CC(=O)O)C4CC4)ccn3)CC2)c1 (centres unmarked) [Example 197, 3-(2-((1-(2-(benzyl(pyridin-2-yl)carbamoyl)-5-methoxyphenyl)piperidin-4-yl)methoxy)pyridin-4-yl)-3-cyclopropylpropanoic acid]",,
94,,"COc1ccnc(N(CC(C)C)C(=O)c2ccc(OC)cc2N2CCC(COc3cc(C(CC(=O)O)C4CC4)ccn3)CC2)c1 (centres unmarked) [Example 135, 3-cyclopropyl-3-(2-((1-(5-methoxy-2-((4-methoxypyridin-2-yl)(2-methylpropyl)carbamoyl)phenyl)piperidin-4-yl)methoxy)pyridin-4-yl)propanoic acid]",,
106,,"COc1ccc(C(=O)N(CC(F)(F)C(F)(F)F)c2nccc(C)n2)c(N2CCC(COc3cc(C(CC(=O)O)C4CC4)ccn3)CC2)c1 (centres unmarked) [Example 171, 3-cyclopropyl-3-(2-((1-(5-methoxy-2-((4-methylpyrimidin-2-yl)(2,2,3,3,3-pentafluoropropyl)carbamoyl)phenyl)piperidin-4-yl)methoxy)pyridin-4-yl)propanoic acid]",,
93,,"COc1ccc(C(=O)N2CCOc3ccccc32)c(N2CCC(COc3cc(C(CC(=O)O)C4CC4)ccn3)CC2)c1 (centres unmarked) [Example 199, 3-cyclopropyl-3-(2-((1-(2-(2,3-dihydro-4H-1,4-benzoxazin-4-ylcarbonyl)-5-methoxyphenyl)piperidin-4-yl)methoxy)pyridin-4-yl)propanoic acid]",,
97,,"COc1ccc(C(=O)N2CCc3ccccc32)c(N2CCC(COc3cccc(C(CC(=O)O)C4CC4)c3)CC2)c1 (centres unmarked) [Example 4, 3-cyclopropyl-3-(3-((1-(2-(2,3-dihydro-1H-indol-1-ylcarbonyl)-5-methoxyphenyl)piperidin-4-yl)methoxy)phenyl)propanoic acid]",,
96,,"CCC(C)(C)N(C(=O)c1ccc(OC)cc1N1CCC(COc2cc(C(CC(=O)O)C3CC3)ccn2)CC1)c1ccccn1 (centres unmarked) [Example 145, 3-cyclopropyl-3-(2-((1-(5-methoxy-2-((2-methylbutan-2-yl)(pyridin-2-yl)carbamoyl)phenyl)piperidin-4-yl)methoxy)pyridin-4-yl)propanoic acid]",,
77,,"COc1ccc(C(=O)N(C)C2CCN(CC(F)(F)F)CC2)c(N2CCC(COc3cc(C(CC(=O)O)C4CC4)ccn3)CC2)c1 (centres unmarked) [Example 194, 3-cyclopropyl-3-(2-((1-(5-methoxy-2-(methyl(1-(2,2,2-trifluoroethyl)piperidin-4-yl)carbamoyl)phenyl)piperidin-4-yl)methoxy)pyridin-4-yl)propanoic acid]",,
,,"COc1ccc(C(=O)N(CC(C)(C)C)c2ncccn2)c(N2CCC(COc3cc(C(CC(=O)O)C4CC4)ccn3)CC2)c1 (centres unmarked) [Example 184, 3-cyclopropyl-3-(2-((1-(2-((2,2-dimethylpropyl)(pyrimidin-2-yl)carbamoyl)-5-methoxyphenyl)piperidin-4-yl)methoxy)pyridin-4-yl)propanoic acid]",27.9^$ %,1.4 fold
97,,"COc1ccc(C(=O)N(CC(F)F)c2nccc(C)n2)c(N2CCC(COc3cc(C(CC(=O)O)C4CC4)ccn3)CC2)c1 (centres unmarked) [Example 172, 3-cyclopropyl-3-(2-((1-(2-((2,2-difluoroethyl)(4-methylpyrimidin-2-yl)carbamoyl)-5-methoxyphenyl)piperidin-4-yl)methoxy)pyridin-4-yl)propanoic acid]",,
103,,"COc1ccc(C(=O)N(CC(C)(C)C)c2cnccn2)c(N2CCC(COc3cc(C(CC(=O)O)C4CC4)ccn3)CC2)c1 (centres unmarked) [Example 178, 3-cyclopropyl-3-(2-((1-(2-((2,2-dimethylpropyl)(pyrazin-2-yl)carbamoyl)-5-methoxyphenyl)piperidin-4-yl)methoxy)pyridin-4-yl)propanoic acid]",,

# — patent US9776962B2, “Aromatic compounds with GPR40 agonistic activity” (TAKEDA PHARMACEUTICAL COMPANY LIMITED, priority 2013, dated 2017)
